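These data come from cells grown in 96-well plates and exposed to compound for 48 hours at five concentrations. TGI marks complete inhibition of growth.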
Columns and labels:
Test in all cases: growth of human tumour cells (NCI), 48 h
[1] = test system: 786-0 renal
[2] = test system: A498 renal
[3] = test system: A549 NSCLC
[4] = test system: ACHN renal
[5] = test system: CCRF-CEM leukemia
[6] = test system: COLO 205 colon
[7] = test system: DU-145 prostate
[8] = test system: EKVX NSCLC
[9] = test system: HCC-2998 colon
[10] = test system: HCT-116 colon
[11] = test system: HCT-15 colon
[12] = test system: HL-60(TB) leukemia
[13] = test system: HOP-62 NSCLC
[14] = test system: HOP-92 NSCLC
[15] = test system: HS 578T breast
[16] = test system: HT29 colon
[17] = test system: K-562 leukemia
[18] = test system: KM12 colon
[19] = test system: LOX IMVI melanoma
[20] = test system: M14 melanoma
[21] = test system: MALME-3M melanoma
[22] = test system: MCF7 breast
[23] = test system: MDA-MB-231 breast
[24] = test system: MDA-MB-435
[25] = test system: MOLT-4 leukemia
[26] = test system: NCI-H226 lung
[27] = test system: NCI-H23 lung
[28] = test system: NCI-H460 lung
[29] = test system: NCI/ADR-RES ovarian
[30] = test system: OVCAR-4 ovarian
[31] = test system: OVCAR-5 ovarian
[32] = test system: OVCAR-8 ovarian
[33] = test system: RPMI-8226 leukemia
[34] = test system: RXF 393 renal
[35] = test system: SF-268 CNS
[36] = test system: SF-295 CNS
[37] = test system: SF-539 CNS
[38] = test system: SK-MEL-28 melanoma
[39] = test system: SK-MEL-5 melanoma
[40] = test system: SK-OV-3 ovarian
[41] = test system: SN12C renal
[42] = test system: SNB-19 CNS
[43] = test system: SNB-75 CNS
[44] = test system: SR leukemia
[45] = test system: SW-620 colon
[46] = test system: TK-10 renal
[47] = test system: U251 CNS
[48] = test system: UACC-257 melanoma
[49] = test system: UO-31 renal
[50] = test system: BT-549 breast
[51] = test system: CAKI-1 renal
[52] = test system: IGROV1 ovarian
[53] = test system: NCI-H522 lung
[54] = test system: OVCAR-3 ovarian
[55] = test system: PC-3 prostate
[56] = test system: SK-MEL-2 melanoma
[57] = test system: UACC-62 melanoma

Compound: CC(=O)NC(NCCN)(c1ccccc1)c1ccccc1
- TGI [1]: > 100 µM
- TGI [2]: > 100 µM
- TGI [3]: > 100 µM
- TGI [4]: > 100 µM
- TGI [5]: > 100 µM
- TGI [6]: > 100 µM
- TGI [7]: > 100 µM
- TGI [8]: > 100 µM
- TGI [9]: > 100 µM
- TGI [10]: > 100 µM
- TGI [11]: > 100 µM
- TGI [12]: > 100 µM
- TGI [13]: > 100 µM
- TGI [14]: > 100 µM
- TGI [15]: > 100 µM
- TGI [16]: > 100 µM
- TGI [17]: > 100 µM
- TGI [18]: > 100 µM
- TGI [19]: > 100 µM
- TGI [20]: > 100 µM
- TGI [21]: > 100 µM
- TGI [22]: > 100 µM
- TGI [23]: > 100 µM
- TGI [24]: > 100 µM
- TGI [25]: > 100 µM
- TGI [26]: > 100 µM
- TGI [27]: > 100 µM
- TGI [28]: > 100 µM
- TGI [29]: > 100 µM
- TGI [30]: > 100 µM
- TGI [31]: > 100 µM
- TGI [32]: > 100 µM
- TGI [33]: > 100 µM
- TGI [34]: > 100 µM
- TGI [35]: > 100 µM
- TGI [36]: > 100 µM
- TGI [37]: > 100 µM
- TGI [38]: > 100 µM
- TGI [39]: > 100 µM
- TGI [40]: > 100 µM
- TGI [41]: > 100 µM
- TGI [42]: > 100 µM
- TGI [43]: > 100 µM
- TGI [44]: > 100 µM
- TGI [45]: > 100 µM
- TGI [46]: > 100 µM
- TGI [47]: > 100 µM
- TGI [48]: > 100 µM
- TGI [49]: > 100 µM

Compound: O=C(c1ccc(Cl)cc1)C(O)c1ccc(Cl)cc1 (centres undefined)
- TGI [1]: > 100 µM
- TGI [3]: > 100 µM
- TGI [4]: > 100 µM
- TGI [50]: > 100 µM
- TGI [51]: > 100 µM
- TGI [5]: > 100 µM
- TGI [6]: > 100 µM
- TGI [7]: > 100 µM
- TGI [8]: > 100 µM
- TGI [9]: > 100 µM
- TGI [10]: > 100 µM
- TGI [11]: > 100 µM
- TGI [12]: 82.7 µM
- TGI [13]: > 100 µM
- TGI [14]: > 100 µM
- TGI [15]: > 100 µM
- TGI [16]: > 100 µM
- TGI [52]: > 100 µM
- TGI [17]: > 100 µM
- TGI [18]: > 100 µM
- TGI [19]: > 100 µM
- TGI [20]: > 100 µM
- TGI [21]: > 100 µM
- TGI [22]: > 100 µM
- TGI [23]: > 100 µM
- TGI [24]: > 100 µM
- TGI [25]: 75.6 µM
- TGI [26]: > 100 µM
- TGI [27]: > 100 µM
- TGI [28]: > 100 µM
- TGI [53]: > 100 µM
- TGI [29]: > 100 µM
- TGI [54]: > 100 µM
- TGI [30]: > 100 µM
- TGI [31]: > 100 µM
- TGI [32]: > 100 µM
- TGI [55]: > 100 µM
- TGI [33]: > 100 µM
- TGI [34]: > 100 µM
- TGI [35]: > 100 µM
- TGI [36]: > 100 µM
- TGI [37]: > 100 µM
- TGI [56]: > 100 µM
- TGI [38]: > 100 µM
- TGI [39]: > 100 µM
- TGI [41]: > 100 µM
- TGI [42]: > 100 µM
- TGI [43]: > 100 µM
- TGI [44]: > 100 µM
- TGI [45]: > 100 µM
- TGI [46]: > 100 µM
- TGI [47]: > 100 µM
- TGI [48]: > 100 µM
- TGI [57]: > 100 µM
- TGI [49]: > 100 µM
